From BigSolDB 2.1

CC(=O)[C@@]12O[C@@H]1C[C@H]1[C@@H]3CCC4=CC(=O)CC[C@]4(C)[C@H]3CC[C@@]12C
Conditions	solubility (mole fraction)
in DMSO, 312.45 K	0.00539
in DMSO, 315.5 K	0.00572
in DMSO, 318.35 K	0.00657
in DMSO, 322.35 K	0.00756
in DMSO, 326.5 K	0.0087
in DMSO, 328.65 K	0.00937
in DMSO, 331.2 K	0.0101
in DMSO, 334.9 K	0.0115
in DMSO, 339.15 K	0.0135
in DMSO, 343.95 K	0.0161
in DMSO, 348.35 K	0.0188
in DMSO, 353.45 K	0.0223
in isopropanol, 296.65 K	0.00307
in isopropanol, 299.55 K	0.00341
in isopropanol, 303.25 K	0.00405
in isopropanol, 306.35 K	0.00486
in isopropanol, 311.75 K	0.00598
in isopropanol, 314.8 K	0.00689
in isopropanol, 317.85 K	0.00752
in isopropanol, 322.95 K	0.00992
in isopropanol, 325.6 K	0.011
in isopropanol, 328.75 K	0.0125
in isopropanol, 333.25 K	0.0152
in isopropanol, 337.45 K	0.0177
in n-butanol, 300.85 K	0.00412
in n-butanol, 303.9 K	0.00473
in n-butanol, 306.75 K	0.00543
in n-butanol, 309.85 K	0.00624
in n-butanol, 314.25 K	0.00765
in n-butanol, 319.18 K	0.00919
in n-butanol, 323.55 K	0.0109
in n-butanol, 328.05 K	0.0134
in n-butanol, 332.75 K	0.0162
in n-butanol, 336.66 K	0.019
in n-butanol, 340.3 K	0.0219
in n-butanol, 343.5 K	0.0244
in n-propanol, 299.15 K	0.00349
in n-propanol, 304.05 K	0.00459
in n-propanol, 307.5 K	0.00524
in n-propanol, 311.55 K	0.00623
in n-propanol, 313.7 K	0.00684
in n-propanol, 316.25 K	0.00769
in n-propanol, 320.65 K	0.00908
in n-propanol, 324.25 K	0.0105
in n-propanol, 328.25 K	0.0122
in n-propanol, 332.05 K	0.0143
in n-propanol, 335.25 K	0.0165
in n-propanol, 340.6 K	0.0203

CC(=O)[C@@]12O[C@@H]1C[C@H]1[C@@H]3CCC4=CC(=O)CC[C@]4(C)[C@H]3[C@H](O)C[C@@]12C
Conditions	solubility (mole fraction)
in 1,4-dioxane, 298 K	0.00293
in 1,4-dioxane, 302.75 K	0.00353
in 1,4-dioxane, 306.39 K	0.00408
in 1,4-dioxane, 310.55 K	0.00447
in 1,4-dioxane, 314.75 K	0.00518
in 1,4-dioxane, 317.25 K	0.0055
in 1,4-dioxane, 320.35 K	0.00605
in 1,4-dioxane, 325.05 K	0.00687
in 1,4-dioxane, 328.55 K	0.00765
in 1,4-dioxane, 332.05 K	0.00845
in 1,4-dioxane, 335.35 K	0.00932
in 1,4-dioxane, 340.15 K	0.0105
in DMSO, 297.75 K	0.00423
in DMSO, 301.3 K	0.00515
in DMSO, 311.06 K	0.00772
in DMSO, 315.15 K	0.00843
in DMSO, 319.05 K	0.00966
in DMSO, 324.25 K	0.0112
in DMSO, 327.15 K	0.0126
in DMSO, 329.55 K	0.0141
in DMSO, 333.67 K	0.016
in DMSO, 337.43 K	0.0178
in DMSO, 340.25 K	0.0196
in DMSO, 344.65 K	0.0228
in isopropanol, 297.95 K	0.000542
in isopropanol, 300.25 K	0.000643
in isopropanol, 303.45 K	0.000717
in isopropanol, 308.05 K	0.000952
in isopropanol, 312.65 K	0.00126
in isopropanol, 316.35 K	0.00147
in isopropanol, 320.75 K	0.0019
in isopropanol, 323.85 K	0.00212
in isopropanol, 327.45 K	0.00262
in isopropanol, 331.95 K	0.00311
in isopropanol, 335.65 K	0.00368
in isopropanol, 340.25 K	0.00456
in n-butanol, 298.75 K	0.000597
in n-butanol, 304.45 K	0.000775
in n-butanol, 307.35 K	0.000935
in n-butanol, 310.75 K	0.00113
in n-butanol, 315.67 K	0.00143
in n-butanol, 320.75 K	0.00177
in n-butanol, 324.35 K	0.00205
in n-butanol, 328.55 K	0.00237
in n-butanol, 331.65 K	0.00268
in n-butanol, 334.15 K	0.00304
in n-butanol, 336.45 K	0.00334
in n-butanol, 340.15 K	0.00384
in n-propanol, 300.5 K	0.000796
in n-propanol, 303.25 K	0.000933
in n-propanol, 306.75 K	0.00109
in n-propanol, 309.9 K	0.00125
in n-propanol, 312.7 K	0.00142
in n-propanol, 317.15 K	0.00172
in n-propanol, 321.67 K	0.00208
in n-propanol, 324.85 K	0.00235
in n-propanol, 327.95 K	0.0027
in n-propanol, 332.65 K	0.00322
in n-propanol, 336.85 K	0.00382
in n-propanol, 341.65 K	0.00463
